The values that follow are results of earlier work, collected in patent US6372499B1, “Polymeric complexes for the transfection of nucleic acids, with residues causing the destabilisation of cell membranes” (I.D.M. Immuno-Designed Molecules, priority 1996, dated 2002).

The structures appear in SMILES notation.

One data set deals with cells. The note with it: after a few hours.
The conditions of data set [1]: persons, daily dose of 300 mg per day, after a few days.

As to `CCN(CC)CCCC(C)Nc1ccnc2cc(Cl)ccc12` (stereo not drawn) [chloroquine], the “intracellular concentration relative to the concentration in the medium” value in the data set with cells was “more than 100 times higher”. In addition, the intracellular concentration result in the data set on cells (initial concentration 100 μM) is “exceed 10 mM”. In addition, the plasma concentration entry in data set [1] is “about 0.7 μM”.
